Assays:
Conditions in all cases: preventive spray 24 h before inoculation
[1] = system: Alternaria brassicae; assay: In vivo test of activity on Alternaria brassicae (crucifer black spot) on radish
Description: In Vivo Test of Activity on Alternaria brassicae (Crucifer Black Spot)
(§1) An aqueous solution of the active material to be tested is prepared at a concentration of 2 g/l by grinding in solution 1 or solution 2:
(§2) • Water • Tween 80 diluted to 10% in water: 5 μl/mg of active material • Clay in a sufficient amount for active material+clay to equal 100 mg; Solution 2
(§3) Concentrated solution containing surfactants and adjuvants conventionally used: 200 μl/mg of active material.
(§4) The aqueous solution is diluted with water so as to obtain the desired concentration.
Radishes of the Pernot variety are sown in a 50/50 pozzolan/peat substrate and maintained at 18-22° C. The treatment is carried out by spraying the aqueous suspension. The untreated control plants are sprayed with water. 24 hours after treatment, the plants are inoculated by spraying a solution of Alternaria brassicae spores (40 000 spores/ml) originating from a 12-day culture.
The radish plants are then maintained at 18-20° C. in a humid atmosphere. The effectiveness of the products is evaluated relative to the control plants after seven to eight days of incubation.
(§5) The effectiveness of the molecules is estimated, at 500 g/ha, 250 g/ha or 330 ppm, by the percentage of control relative to untreated plants. Under these conditions, good effectiveness is defined as more than 80% effectiveness. Average effectiveness is defined as an effectiveness between 50 and 80%. Poor effectiveness is defined as an effectiveness between 10 and 50% and zero effectiveness is defined as less than 10% effectiveness.

[2] = system: Botrytis cinerea; assay: In vivo test of activity on Botrytis cinerea on cucumber
Description: In Vivo Test of Activity on Botrytis cinerea on Cucumber
as §1, §2, §3, §4
Cucumbers of the Marketer variety are sown in a 50/50 pozzolan/peat substrate and maintained at 18-22° C. The treatment is carried out by spraying the aqueous suspension. The untreated control plants are sprayed with water.
24 hours after treatment, the plants are inoculated by spraying a solution of Botrytis cinerea spores (150 000 spores/ml) originating from a 15-day culture.
The cucumber plants are then maintained at 11-15° C. in a humid atmosphere. The effectiveness of the products is evaluated relative to the control plants after seven to eight days of incubation.
as §5

[3] = system: Pyrenophora teres; assay: In vivo test of activity on Pyrenophora teres (barley net blotch)
Description: In Vivo Test of Activity on Pyrenophora teres (Barley Net Blotch)
as §1, §2, §3, §4
Barley plants of the Express variety are sown in a 50/50 pozzolan/peat substrate and maintained at 12° C. The treatment is carried out at the 1-leaf stage (10 cm) by spraying the aqueous suspension. The untreated control plants are sprayed with water.
24 hours after treatment, the plants are inoculated by spraying a solution of Pyrenophora teres spores (10 000 spores/ml) originating from a 10-day culture.
The barley plants are then maintained at 18° C. in a humid atmosphere. The effectiveness of the products is evaluated relative to the control plants after eight to fifteen days of incubation.
as §5

[4] = Botrytis cinerea, topical, 250 g/ha, read-out: effectiveness (percentage of control relative to untreated plants)

Cc1ccccc1C(=O)NCCc1ncc(C(F)(F)F)cc1Cl [Compound A-9]
effectiveness (percentage of control relative to untreated plants) ([1]; 500 g/ha): good to average | effectiveness (percentage of control relative to untreated plants) ([2]; 500 g/ha): good to average | effectiveness (percentage of control relative to untreated plants) ([3]; 500 g/ha): good to average

O=C(NCCc1ncc(C(F)(F)F)cc1Cl)c1ccccc1I [Compound A-45]
effectiveness (percentage of control relative to untreated plants) ([1]; 250 g/ha): good to average | effectiveness (percentage of control relative to untreated plants) ([1]; 330 ppm): good to average | effectiveness (percentage of control relative to untreated plants) ([2]; 250 g/ha): good to average | effectiveness (percentage of control relative to untreated plants) ([2]; 330 ppm): good to average | effectiveness (percentage of control relative to untreated plants) ([3]; 250 g/ha): good to average | effectiveness (percentage of control relative to untreated plants) ([3]; 330 ppm): good to average

O=C(NCCc1ncc(C(F)(F)F)cc1Cl)c1ccccc1Br [Compound A-46]
effectiveness (percentage of control relative to untreated plants) ([1]; 250 g/ha): good to average | effectiveness (percentage of control relative to untreated plants) ([1]; 330 ppm): good to average | effectiveness (percentage of control relative to untreated plants) ([2]; 250 g/ha): good to average | effectiveness (percentage of control relative to untreated plants) ([2]; 330 ppm): good to average | effectiveness (percentage of control relative to untreated plants) ([3]; 250 g/ha): good to average | effectiveness (percentage of control relative to untreated plants) ([3]; 330 ppm): good to average

O=C(NCCc1ncc(C(F)(F)F)cc1Cl)c1ccc(F)cc1C(F)(F)F [Compound A-73]
effectiveness (percentage of control relative to untreated plants) ([1]; 250 g/ha): good to average | effectiveness (percentage of control relative to untreated plants) ([1]; 330 ppm): good to average | effectiveness (percentage of control relative to untreated plants) ([2]; 250 g/ha): good to average | effectiveness (percentage of control relative to untreated plants) ([2]; 330 ppm): good to average | effectiveness (percentage of control relative to untreated plants) ([3]; 250 g/ha): good to average | effectiveness (percentage of control relative to untreated plants) ([3]; 330 ppm): good to average

O=C(NCCc1ncc(C(F)(F)F)cc1Cl)c1ccc([N+](=O)[O-])cc1Cl [Compound A-96]
effectiveness (percentage of control relative to untreated plants) ([1]; 330 ppm): good to average | effectiveness (percentage of control relative to untreated plants) ([3]; 330 ppm): good to average

Cc1cc(F)ccc1C(=O)NCCc1ncc(C(F)(F)F)cc1Cl [Compound A-117]
effectiveness (percentage of control relative to untreated plants) ([1]; 330 ppm): good to average | effectiveness (percentage of control relative to untreated plants) ([3]; 330 ppm): good to average

O=C(NCCc1ncc(C(F)(F)F)cc1Cl)c1ccc(Cl)c(F)c1Cl [Compound A-125]
effectiveness (percentage of control relative to untreated plants) ([1]; 330 ppm): good to average | effectiveness (percentage of control relative to untreated plants) ([3]; 330 ppm): good to average

CS(=O)(=O)c1cc(Br)ccc1C(=O)NCCc1ncc(C(F)(F)F)cc1Cl [Compound A-133]
effectiveness (percentage of control relative to untreated plants) ([1]; 330 ppm): good to average | effectiveness (percentage of control relative to untreated plants) ([3]; 330 ppm): good to average

Cc1ccc(Br)c(C(=O)NCCc2ncc(C(F)(F)F)cc2Cl)c1 [Compound A-134]
effectiveness (percentage of control relative to untreated plants) ([1]; 330 ppm): good to average | effectiveness (percentage of control relative to untreated plants) ([3]; 330 ppm): good to average

CSc1cc(F)ccc1C(=O)NCCc1ncc(C(F)(F)F)cc1Cl [Compound A-140]
effectiveness (percentage of control relative to untreated plants) ([1]; 330 ppm): good to average | effectiveness (percentage of control relative to untreated plants) ([3]; 330 ppm): good to average

CSc1ccccc1C(=O)NCCc1ncc(C(F)(F)F)cc1Cl [Compound A-167]
effectiveness (percentage of control relative to untreated plants) ([1]; 330 ppm): good to average | effectiveness (percentage of control relative to untreated plants) ([3]; 330 ppm): good to average

N#Cc1ccccc1C(=O)NCCc1ncc(C(F)(F)F)cc1Cl [Compound A-170]
effectiveness (percentage of control relative to untreated plants) ([1]; 330 ppm): good to average | effectiveness (percentage of control relative to untreated plants) ([2]; 330 ppm): good to average

O=C(NCCc1ncc(C(F)(F)F)cc1Cl)c1cc(F)ccc1C(F)(F)F [Compound A-172]
effectiveness (percentage of control relative to untreated plants) ([2]; 330 ppm): good to average

O=C(NCCc1ncc(C(F)(F)F)cc1Cl)c1c(F)cccc1C(F)(F)F [Compound A-173]
effectiveness (percentage of control relative to untreated plants) ([1]; 250 g/ha): good to average | effectiveness (percentage of control relative to untreated plants) ([1]; 330 ppm): good to average | effectiveness (percentage of control relative to untreated plants) ([2]; 330 ppm): good to average | effectiveness (percentage of control relative to untreated plants) ([3]; 330 ppm): good to average

O=C(NCCc1ncc(C(F)(F)F)cc1Cl)c1c(F)cccc1I [Compound A-174]
effectiveness (percentage of control relative to untreated plants) ([1]; 330 ppm): good to average | effectiveness (percentage of control relative to untreated plants) ([2]; 330 ppm): good to average | effectiveness (percentage of control relative to untreated plants) ([3]; 330 ppm): good to average

O=C(NCCc1ncc(C(F)(F)F)cc1Cl)c1cc(F)ccc1Br [Compound A-175]
effectiveness (percentage of control relative to untreated plants) ([1]; 330 ppm): good to average | effectiveness (percentage of control relative to untreated plants) ([2]; 330 ppm): good to average

O=C(NCCc1ncc(C(F)(F)F)cc1Cl)c1ccccc1OC(F)F [Compound A-187]
effectiveness (percentage of control relative to untreated plants) ([1]; 330 ppm): good to average | effectiveness (percentage of control relative to untreated plants) ([2]; 330 ppm): good to average | effectiveness (percentage of control relative to untreated plants) ([3]; 330 ppm): good to average

O=C(NCCc1c(Cl)cc(C(F)(F)F)c[n+]1[O-])c1ccccc1C(F)(F)F [Compound B-1]
effectiveness (percentage of control relative to untreated plants) ([1]; 330 ppm): good to average | effectiveness (percentage of control relative to untreated plants) ([3]; 330 ppm): good to average

O=C(NCCc1ncc(C(F)(F)F)cc1Cl)c1c(Cl)cccc1Cl [N-{2-[3-chloro-5-(trifluoromethyl)-2-pyridinyl]-ethyl}-2,6-dichlorobenzamide, reference compound]
effectiveness (percentage of control relative to untreated plants) ([1]; 250 g/ha): zero (zero effectiveness is defined as less than 10% effectiveness) | effectiveness (percentage of control relative to untreated plants) ([1]; 330 ppm): poor (Poor effectiveness is defined as an effectiveness between 10 and 50%) | pest or weed control at 250 g/ha [2, 4]: < 10% | pest or weed control at 330 ppm ([2]; Botrytis cinerea, topical, 330 ppm, read-out: effectiveness (percentage of control relative to untreated plants)): < 10%

CCNC(=O)C(Cc1ncc(C(F)(F)F)cc1Cl)NC(=O)c1ccccc1 (centres unmarked) [compound 304, N-{1-ethylcarbamoyl-2-[3-chloro-5-(trifluoromethyl)-2-pyridinyl]ethyl}-benzamide, reference compound]
pest or weed control at 250 g/ha [2, 4]: < 10%

CCNC(=O)C(Cc1ncc(C(F)(F)F)cc1Cl)NC(=O)c1ccc(Cl)cc1 (centres unmarked) [compound 306, N-{1-ethylcarbamoyl-2-[3-chloro-5-(trifluoromethyl)-2-pyridinyl]ethyl}-4-chlorobenzamide, reference compound]
pest or weed control at 250 g/ha [2, 4]: < 10%

CCNC(=O)C(Cc1ncc(C(F)(F)F)cc1Cl)NC(=O)c1cccc([N+](=O)[O-])c1 (centres unmarked) [compound 307, N-{1-ethylcarbamoyl-2-[3-chloro-5-(trifluoromethyl)-2-pyridinyl]ethyl}-3-nitrobenzamide, reference compound]
effectiveness (percentage of control relative to untreated plants) ([1]; 250 g/ha): zero (zero effectiveness is defined as less than 10% effectiveness) | pest or weed control at 250 g/ha [2, 4]: < 10%

CCNC(=O)C(Cc1ncc(C(F)(F)F)cc1Cl)NC(=O)c1ccccc1Br (centres unmarked) [compound 310, N-{1-ethylcarbamoyl-2-[3-chloro-5-(trifluoromethyl)-2-pyridinyl]ethyl}-2-bromobenzamide, reference compound]
pest or weed control at 250 g/ha [2, 4]: < 10%

CNC(=O)C(Cc1ncc(C(F)(F)F)cc1Cl)NC(=O)c1ccccc1 (centres unmarked) [compound 314, N-{1-methylcarbamoyl-2-[3-chloro-5-(trifluoromethyl)2-pyridinyl]ethyl}-benzamide, reference compound]
pest or weed control at 250 g/ha [2, 4]: < 10%

CNC(=O)C(Cc1ncc(C(F)(F)F)cc1Cl)NC(=O)c1ccc(OC)cc1 (centres unmarked) [compound 315, N-{1-methylcarbamoyl-2-[3-chloro-5-(trifluoromethyl)-2-pyridinyl]ethyl}-4-methoxybenzamide, reference compound]
pest or weed control at 250 g/ha [2, 4]: < 10%

CNC(=O)C(Cc1ncc(C(F)(F)F)cc1Cl)NC(=O)c1ccc(-c2ccccc2)cc1 (centres unmarked) [compound 316, N-{1-methylcarbamoyl-2-[3-chloro-5-(trifluoromethyl)-2-pyridinyl]ethyl}-4-phenylbenzamide, reference compound]
effectiveness (percentage of control relative to untreated plants) ([1]; 250 g/ha): poor (Poor effectiveness is defined as an effectiveness between 10 and 50%) | pest or weed control at 250 g/ha [2, 4]: < 10%

Source: US7572818B2, “2-pyridylethylbenzamide derivative” (Bayer Cropscience S.A., priority 2002, dated 2009)
